Legend:
[1] = Alanine aminotransferase (ALT) activity in plasma of mice; type: in vivo, mouse; conditions: end of treatment, 10 mg/kg/day by gavage
Method: At the end of the treatment period, blood was drawn from each animal. Plasma was separated by centrifugation and stored at −70° C. The activity of ALT was determined in aliquots of plasma by standard spectrophotometric enzymatic techniques which are based on the reduction of pyruvate by lactate dehydrogenase (28). The method measures NADH disappearance with time of incubation at 37° C. The activities are expressed as mm/L/min. Two different amounts of plasma were used in each assay to assure measurement of the maximum rate.

ovarian cancer cells = assay: Microarray analysis of gene expression in SHetA2-treated ovarian cancer cells; type: cell-based, human
Method: Microarray analysis was conducted to determine specific disease causing genes which were expressed at higher (>1 fold) or lower (<1 fold) levels than normal in ovarian cancer cells treated with SHetA2 (see Table 6).

[2] = test system: human Caki renal cancer xenografts; assay: Caki renal cancer xenograft model; type: in vivo, mouse
Method: (§1) FIG. 12. Various Xenograft tumors stained with CD34 antibodies (brown) to identify endothelium. The B16 mouse melanoma cell line was established as a syngeneic tumor in an immunocompetent mouse model and the human Caki renal cancer and A2780 ovarian xenograft tumors in immunocompromised mice. The treated mice were gavaged with 60 mg/kg/day SHetA2 and the untreated were gavaged with solvent only. The tumors were excised and sections were stained with the anti-CD34 antibody to detect endothelial cells (brown stain).
FIG. 20. Mice harboring Caki renal cancer xenografts were treated with 60 mg/kg/day SHetA2 or PEG400 vehicle for 15 days. After another 15 days of growth, the tumors were removed, fixed, embedded and sections. Sections were stained with PAS to identify glycoproteins and lysosomes. The untreated tumor is on the left and the treated tumor is on the right.
(§2) Survival was the primary endpoint of those studies. […] Tumor growth was the primary endpoint of the renal cancer study.

[3] = test system: A2780 ovarian xenograft tumors; assay: A2780 ovarian xenograft tumor model; type: in vivo, mouse; conditions: oral 60 mg/kg/day
Method: as §1, §2

[4] = test system: SW962 vulvar carcinoma cultures; assay: Annexin-V-Fluos apoptosis assay (flow cytometry); type: cell-based; conditions: 10 μM; same concentration range as 4-HPR
Method: SW962 vulvar carcinoma cultures were treated with 10 μM of the indicated retinoid or the same volume of solvent. At the specified times, the cultures were labeled with Annexin-V-Fluos and propidium iodide (PI), and the number of apoptotic cells was quantified using dual-laser flow cytometric analysis.

Thrombospondin 4 (TSP4) = assay: Real time rt-PCR and Western blot validation, TSP-4; type: cell-based; conditions: 1 μM (rt-PCR, OVCAR-3) and 10 μM (Western blot, A2780)
Method: FIG. 13. Real Time rt-PCR validation of SHetA2 inhibition of TP and TSP-1 mRNA Expression. OVCAR-3 cultures were treated with 1 μM SHetA2 for the indicated period of time prior to harvesting the cells and isolating RNA. cDNA was prepared and used in real time rt-PCR reactions. Real time rt-PCR was performed on CDNA from cultures various treatment times.
FIG. 14. Western blot validation of SHetA2 inhibition of TP and TSP4 protein expression. A2780 ovarian cancer cells were treated with 10 μM SHetA2 for the indicated amounts of time. Equal amounts of whole cell protein extracts were evaluated by Western blot.

CC1(C)CC(C)(C)c2cc(NC(=S)Nc3ccc([N+](=O)[O-])cc3)ccc2S1 [SHetA2]
ALT Activity [1]: 118.5 ± 153.4 mm/liter/min
Fold (ovarian cancer cells; gene: 3-hydroxyisobutyrate dehydrogenase, mitochondrial precursor, AK025558): 0.00 Fold
Fold (ovarian cancer cells; gene: A kinase (PRKA) anchor protein 1, clone MGC:1807, BC000729.1): 2.00 Fold
Fold (ovarian cancer cells; gene: A kinase anchor protein S-AKAP84 mRNA, U34074.1): 2.14 Fold
Fold (ovarian cancer cells; gene: ADAMTS1, AK023795.1): 0.43 Fold
Fold (ovarian cancer cells; gene: ADAMTS5, NM_007038.1): 0.23 Fold
Fold (ovarian cancer cells; gene: ASPLTFE3 type 2 fusion protein, ASPLTFE3 type 1 fusion protein mRNA, AY034077.1): 0.46 Fold
Fold (ovarian cancer cells; gene: ATP-binding cassette, sub-family B (MDRTAP), member 6 (ABCB6), NM_005689.1): 0.46 Fold
Fold (ovarian cancer cells; gene: ATP-binding cassette, sub-family D (ALD), member 2 (ABCD2), NM_005164.1): 2.71 Fold
Fold (ovarian cancer cells; gene: Amyotrophic lateral sclerosis 2 (juvenile) chromosome region, candidate 3 (ALS2CR3), NM_015049.1): 0.41 Fold
Fold (ovarian cancer cells; gene: Angiopoietin-like 2 (ANGPTL2), NM_012098.1): 2.16 Fold
Fold (ovarian cancer cells; gene: B-cell CLLlymphoma 3 (BCL3), AI829875): 2.58 Fold
Fold (ovarian cancer cells; gene: B-cell CLLlymphoma 3 (BCL3), NM_005178.1): 2.05 Fold
Fold (ovarian cancer cells; gene: BAGE2 antigen (BAGE2), AF218570.1): 0.34 Fold
Fold (ovarian cancer cells; gene: BAM in multiple myeloma, AF455755.1): 3.05 Fold
Fold (ovarian cancer cells; gene: Butyrophilin (BTF3), Cluster Incl. U90548): 2.15 Fold
Fold (ovarian cancer cells; gene: Butyrophilin, subfamily 3, member A2 (BTN3A2), AI991252): 2.31 Fold
Fold (ovarian cancer cells; gene: Butyrophilin, subfamily 3, member A3 (BTN3A3), NM_006994.2): 2.04 Fold
Fold (ovarian cancer cells; gene: Cervical cancer suppressor gene-4 protein (HCCS-4), AF465843.1): 2.06 Fold
Fold (ovarian cancer cells; gene: Chromosome 5 open reading frame 4 (C5ORF4), NM_016348.1): 2.76 Fold
Fold (ovarian cancer cells; gene: Deleted in lymphocytic leukemia, 2/DEF = Homo sapiens BCMS-upstream neighbor (BCMSUN), AF264787.1): 0.33 Fold
Fold (ovarian cancer cells; gene: Deleted in lymphocytic leukemia, BCMS-upstream neighbor (BCMSUN) (DLEU2), AF264787.1): 0.40 Fold
Fold (ovarian cancer cells; gene: Dysferlin, limb girdle muscular dystrophy 2B (DYSF), NM_003494.1): 2.16 Fold
Fold (ovarian cancer cells; gene: Dystrophin, dystrophin Dp40 isoform (DMD), NM_004019.1): 2.76 Fold
Fold (ovarian cancer cells; gene: EHT protein, AF068266.1): 2.80 Fold
Fold (ovarian cancer cells; gene: ESTs, Moderately similar to S72399 ras-homolog GTPase rab28 isoform S, AI080106): 7.75 Fold
Fold (ovarian cancer cells; gene: ESTs, Weakly similar to DRPL_Human Atrophin-1 (DRPL) in Huntington's disease (HD) and DRPLA, AI358954): 2.52 Fold
Fold (ovarian cancer cells; gene: ESTs, Weakly similar to DRPL_Human Atrophin-1 (DRPL) in dentatorubral-pallidoluysian atrophy, AI358954): 2.52 Fold
Fold (ovarian cancer cells; gene: Endothelial cell growth factor 1 (platelet-derived)/Thymidine phosphorylase, NM_001953): 0.42 Fold
Fold (ovarian cancer cells; gene: Enhancer of zeste (Drosophila) homolog 2 (EZH2) (USP14), NM_004456.1): 0.47 Fold
Fold (ovarian cancer cells; gene: FLJ23538 fis, highly similar to BETA2 Human MEN1 region clone epsilonbeta (BETA2), AI042152): 0.31 Fold
Fold (ovarian cancer cells; gene: FYN oncogene related to SRC, FGR and YES (FYN), N20923): 0.13 Fold
Fold (ovarian cancer cells; gene: FYN oncogene related to SRC, FGR and YES, c-syn protooncogene, M14333.1): 0.44 Fold
Fold (ovarian cancer cells; gene: Facioscapulohumeral muscular dystrophy (FSHD) gene region, D4Z4 tandem repeat unit, D38024): 2.43 Fold
Fold (ovarian cancer cells; gene: Familial Mediterranean fever locus region, AF098968.1): 0.30 Fold
Fold (ovarian cancer cells; gene: Fibroblast growth factor 2 (basic)(FGF2), NM_002006.1): 0.35 Fold
Fold (ovarian cancer cells; gene: Fibroblast growth factor 18 (FGF18), NM_003862.1): 2.75 Fold
Fold (ovarian cancer cells; gene: Galactosamine (N-acetyl)-6-sulfate sulfatase, NM_000512): 0.52 Fold
Fold (ovarian cancer cells; gene: Glypican-6 (GPC6), AF111178.1): 2.07 Fold
Fold (ovarian cancer cells; gene: Hemochromatosis splice variant 495-2314del, AF144243.1): 3.01 Fold
Fold (ovarian cancer cells; gene: IMAGE:3050107 mRNA, TBC1 domain family, BC001525): 0.67 Fold
Fold (ovarian cancer cells; gene: Keratocan (KERA), NM_007035.2): 0.50 Fold
Fold (ovarian cancer cells; gene: Lipoma cell line Li-538SV40 ectopic sequence from HMGI-C fusion mRNA (LI), AI990940): 0.47 Fold
Fold (ovarian cancer cells; gene: METH1 protein (METH1), AF060152.1): 0.39 Fold
Fold (ovarian cancer cells; gene: Myeloidlymphoid leukemia 2 (MLL2), AF105279.1): 0.31 Fold
Fold (ovarian cancer cells; gene: Myeloidlymphoid or mixed-lineage leukemia, translocated to, 4 (HGC6.3), AB016902.2): 5.07 Fold
Fold (ovarian cancer cells; gene: N-cym protein, NM_006316): 2.38 Fold
Fold (ovarian cancer cells; gene: NICE-5 protein, AW779859): 0.48 Fold
Fold (ovarian cancer cells; gene: Nasopharyngeal carcinoma susceptibility protein (LZ16), NM_013275.1): 0.41 Fold
Fold (ovarian cancer cells; gene: Nephropontin, M83248.1): 2.34 Fold
Fold (ovarian cancer cells; gene: Neuroblastoma, suppression of tumorigenicity 1 (NBL1), NM_005380.1): 3.07 Fold
Fold (ovarian cancer cells; gene: Niban protein (NIBAN), NM_022083.1): 0.21 Fold
Fold (ovarian cancer cells; gene: Novel MAFF LIKE protein, Cluster Incl. AL021977): 0.47 Fold
Fold (ovarian cancer cells; gene: PNAS-128 in leukemia, AF277186.1): 0.36 Fold
Fold (ovarian cancer cells; gene: Peroxisomal biogenesis factor 3 (PEX3), NM_003630.1): 0.43 Fold
Fold (ovarian cancer cells; gene: Peroxisomal biogenesis factor 14 (PEX14), NM_004565.1): 2.06 Fold
Fold (ovarian cancer cells; gene: Promyelocytic leukemia (PML), NM_002675.1): 2.76 Fold
Fold (ovarian cancer cells; gene: Prostate cancer associated protein 5 (PCANAP5), AI299378): 0.23 Fold
Fold (ovarian cancer cells; gene: Prothymosin alpha (PTMA), AF257099): 2.60 Fold
Fold (ovarian cancer cells; gene: Putative c-Myc-responsive (RCL), AA523444): 0.41 Fold
Fold (ovarian cancer cells; gene: RASSF3 isoform A, putative tumor suppressor, AY062002.1): 2.88 Fold
Fold (ovarian cancer cells; gene: RNA binding motif protein 5, putative tumor suppressor (LUCA15), U23946.1): 0.43 Fold
Fold (ovarian cancer cells; gene: Regulatory factor X-associated protein (RFXAP), NM_000538.1): 0.41 Fold
Fold (ovarian cancer cells; gene: Retinitis pigmentosa GTPase regulator (RPGR), NM_000328.1): 0.47 Fold
Fold (ovarian cancer cells; gene: Rhabdoid tumor deletion region protein 1 (RTDR1), NM_014433.1): 2.20 Fold
Fold (ovarian cancer cells; gene: SNRPN upstream reading frame (SNURF), BF114870): 0.39 Fold
Fold (ovarian cancer cells; gene: Sarcoglycan, gamma (35 kD dystrophin-associated glycoprotein), NM_000231.1): 0.04 Fold
Fold (ovarian cancer cells; gene: Similar to vitelliform macular dystrophy (Best disease, bestrophin), BC041664.1): 0.26 Fold
Fold (ovarian cancer cells; gene: Smcx homolog, X chromosome (mouse), NM_004187): 0.61 Fold
Fold (ovarian cancer cells; gene: Sulfite oxidase (SUOX), NM_000456.1): 2.11 Fold
Fold (ovarian cancer cells; gene: Thrombospondin 1 (THBS1), BE999967): 0.42 Fold
Fold (ovarian cancer cells; gene: Thrombospondin 4, NM_003248): 0.58 Fold
Fold (ovarian cancer cells; gene: Thromospondin 4 (THBS4), NM_03248.1): 2.58 Fold
Fold (ovarian cancer cells; gene: Transglutaminase 4 (prostate), NM_003241): 0.24 Fold
Fold (ovarian cancer cells; gene: Translocase of inner mitochondrial membrane 44 (yeast) homolog (TIM44), NM_006351.1): 0.50 Fold
Fold (ovarian cancer cells; gene: Trichorhinophalangeal syndrome I gene (TRPS1), NM_014112.1): 0.36 Fold
Fold (ovarian cancer cells; gene: UDP-galactose-4-epimerase, NM_000403): 0.66 Fold
Fold (ovarian cancer cells; gene: Unknown protein mRNA within the p53 intron 1, U58658.1): 0.45 Fold
Fold (ovarian cancer cells; gene: Vascular endothelial growth factor (VEGF), AF022375.1): 0.47 Fold
Fold (ovarian cancer cells; gene: Vitelliform macular dystrophy (Best disease, bestrophin) (VMD2), NM_004183.1): 0.28 Fold
Fold (ovarian cancer cells; gene: aarF domain containing kinase 4, BC013114): 2.30 Fold
Fold (ovarian cancer cells; gene: v-Myc avian myelocytomatosis viral related oncogene, neuroblastoma derived (MYCN), BC002712.1): 3.99 Fold
tumor growth ([2]; renal cancer model, oral 60 mg/kg/day): decreased tumor growth
PAS stain: general glycoprotein expression and lysosomal staining ([2]; renal xenograft tumors, 60 mg/kg/day for 15 days, versus untreated tumors): increase in general glycoprotein expression and lysosomal staining
development of blood vessels inside tumors (anti-CD34 staining) ([2]; renal, oral 60 mg/kg/day): inhibited the development of blood vessels
survival ([3]; ovarian cancer model): improved survival
development of blood vessels inside tumors (anti-CD34 staining) ([3]; ovarian): inhibited the development of blood vessels
induction of apoptosis (Annexin-V-Flous assay) [4]: induced apoptosis
expression of TSP-4 at the RNA and protein levels (Thrombospondin 4 (TSP4)): inhibit expression

From patent US20060281806A1, “Treatment and inhibition of disease conditions using flexible heteroarotinoids” (priority 2005, published 2006)
